From patent publication US8039614B2, “4' -C-substituted-2-haloadenosine derivative” (Yamasa Corporation, priority 2004, dated 2011)
One block for each compound: values may come before it.

Key:
[1] = system: HIV-1 M184V drug-resistant strain; test: MAGI assay using HeLa CD4/LTR-beta-Gal cells, drug-resistant strain M184V; assay type: cell-based; details: Human immunodeficiency virus 1, HeLa, 48 h, read-out: Anti-HIV-1M184V activity (EC50, μM)
Protocol: (§1) • 1. A test agent (100 μl) is diluted on a 96-well microplate. MT-4 cells infected with HIV-1 (IIIb strain; 100 TCID50) and non-infected MT-4 cells are added to the microplate such that the number of cells in each well becomes 10,000. The cells are cultured at 37° C. for five days. • 2. MTT (20 μl, 7.5 mg/ml) is added to each well, and the cells are further cultured for 2-3 hours. • 3. The cultured medium (120 μl) is sampled, and MTT terminating solution (isopropanol containing 4% Triton X-100 and 0.04N HCl) is added to the sample. The mixture is stirred to dissolve formed formazan. The absorbance at 540 nm of the solution is measured. Since the absorbance is proportional to the number of viable cells, the test agent concentration at which a half value of the absorbance is measured in a test using infected MT-4 cells represents EC50, whereas the test agent concentration at which a half value of the absorbance is measured in a test using non-infected MT-4 cells represents CC50. 2) MAGI Assay Using HeLa CD4/LTR-beta-Gal Cells • 1. HeLa CD4/LTR-beta-Gal cells are added to 96 wells such that the number of cells in each well is 10,000. After 12-24 hours, the culture medium is removed, and a diluted test agent (100 μl) is added. • 2. A variety of HIV strains (wild strain: WT, drug-resistant strain: MDR and M184V; each being equivalent to 50 TCID50) are added, and the cells are further cultured for 48 hours. • 3. The cells are fixed for five minutes using PBS supplemented with 1% formaldehyde and 0.2% glutaraldehyde. • 4. After the fixed cells are washed with PBS three times, the cells are stained with 0.4 mg/ml X-Gal for one hour, and the number of blue-stained cells of each well is counted under a transmission stereoscopic microscope. The test agent concentration at which blue-stained cells decrease to 50% in number represents EC50. <Results> Anti-human-immunodeficiency Virus (HIV) Activity and Cytotoxicity 1) MTT Method Using MT-4 Cells

HIV-1 (IIIb strain) = test: MTT method using MT-4 cells infected with HIV-1 (anti-HIV activity); assay type: cell-based; details: for EC50: MT-4 cells infected with HIV-1 IIIb, MTT, five days; for Selectivity Index (CC50/EC50): MT-4 cells
Protocol: (§2) 1) MTT Method Using MT-4 Cells
as §1

[2] = MTT method using non-infected MT-4 cells (cytotoxicity); assay type: cell-based; details: human
Protocol: as §2, §1

[3] = system: HIV-1 MDR drug-resistant strain; test: MAGI assay using HeLa CD4/LTR-beta-Gal cells, drug-resistant strain MDR; assay type: cell-based; details: Human immunodeficiency virus 1, HeLa, 48 h, read-out: Anti-HIV-1MDR activity (EC50, μM)
Protocol: as §1

HIV-1 wild strain (WT) = test: MAGI assay using HeLa CD4/LTR-beta-Gal cells, wild strain; assay type: cell-based; details: Human immunodeficiency virus 1, 48 hours, read-out: Anti-HIV-1wild activity (EC50)
Protocol: as §1

[4] = Stability under acidic conditions (HPLC); assay type: physicochemical; details: NaCl/hydrochloric acid test solution, 37° C.
Protocol: <Test Methods> Stability of Compound 4 Under Acidic Conditions
Compound 4 (2.9 mg) or 2′,3′-dideoxyadenosine (ddAdo: 2.4 mg) was dissolved in 10 ml of a 37° C. test solution (which had been prepared by adding 2.0 g of sodium chloride and 7.0 ml of hydrochloric acid into water to make a solution of 1,000 ml), followed by incubation at the same temperature (37° C.).
A 100-μl aliquot of the reaction mixture was removed therefrom and neutralized with aqueous 0.1-N sodium hydroxide solution, followed by analysis of 5 μl by means of HPLC. The HPLC analysis conditions are the same as those employed in Test Example 2.

ICR mice = test: In vivo acute toxicity test in ICR mice; details: for Survisors/Total: ICR mice, seven days
Protocol: <Test methods> In vivo Acute Toxicity Test of Compound 4
Groups of ICR mice (6 weeks of age, male), each group consisting of 8 mice, were given a test drug (Compound 4; dissolved or suspended in saline) via oral route or intravenous injection in amounts up to 100 mg/kg. The occurrence of death and body weight of each mouse were monitored for seven days.

[5] = target: T1, Calf-intestine-derived adenosine deaminase (Bos taurus, UniProt P56658); test: Stability against adenosine deaminase (HPLC); assay type: in vitro ADME; details: 0.01 unit enzyme, 0.5 mM compound, Tris-HCl pH 7.5, 25° C., FIG. 1
T1 construct: Calf-intestine-derived adenosine deaminase; from tissue; host or cells: calf intestine
T1 sequence (P56658 1-363): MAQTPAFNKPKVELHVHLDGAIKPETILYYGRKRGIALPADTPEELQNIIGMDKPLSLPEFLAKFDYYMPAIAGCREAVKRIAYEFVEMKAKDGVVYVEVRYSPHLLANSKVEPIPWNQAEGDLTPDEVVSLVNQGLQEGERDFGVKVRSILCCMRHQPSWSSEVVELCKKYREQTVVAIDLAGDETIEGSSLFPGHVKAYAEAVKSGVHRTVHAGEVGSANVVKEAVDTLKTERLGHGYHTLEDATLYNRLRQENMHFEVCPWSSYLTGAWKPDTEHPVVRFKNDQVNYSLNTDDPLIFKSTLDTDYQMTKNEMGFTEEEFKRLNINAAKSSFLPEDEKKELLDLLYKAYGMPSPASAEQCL
Protocol: <Test Methods> Stability of Compound 4 Against Adenosine Deaminase Calf-intestine-derived adenosine deaminase (0.01 unit) was added to 0.5 ml of 0.5-mM compound 4 (50 mM Tris-HCl buffered solution (pH 7.5)), and the mixture was incubated at 25° C. A 5-μl aliquot of the reaction mixture was removed every 15 minutes, followed by analysis by means of HPLC (high performance liquid chromatography). The peak area of a test drug at reaction time 0 was taken as 100%, and the curve was monitored over time. The HPLC analysis was performed under the following conditions. Column: YMC-Pack ODS-A (250×6.0 mm) Eluent: 15% MeCN-50 mM TEAA Flow rate: 1 mL/min. Temperature: 30° C. Detection: 260 nm

non-infected MT-4 cells = test: MTT method using non-infected MT-4 cells (cytotoxicity); assay type: cell-based; details: non-infected MT-4 cells, MTT, five days
Protocol: as §2, §1

[6] = Human immunodeficiency virus 1, MT4, 120 h

SMILES: C#C[C@]1(CO)O[C@@H](n2cnc3c(N)nc(F)nc32)C[C@@H]1O [Compound 4, 2′-deoxy-4′-C-ethynyl-2-fluoroadenosine]
EC50 [1]: 0.00311 µM
EC50 (HIV-1 (IIIb strain); [6]): 0.068 nM
Selectivity Index (CC50/EC50) (HIV-1 (IIIb strain)): 110,000
CC50 at 5 days [2]: 7500 nM
EC50 [3]: 0.000145 µM
EC50 (HIV-1 wild strain (WT)): 0.2 nM
Degradation under acidic conditions ([4]; FIG. 2): degraded very slowly
Survisors/Total (ICR mice; Intravenous, 1 mg/kg single dose): 8/8
Survisors/Total (ICR mice; Intravenous, 3 mg/kg single dose): 8/8
Survisors/Total (ICR mice; Intravenous, 10 mg/kg single dose): 8/8
Survisors/Total (ICR mice; Intravenous, 30 mg/kg single dose): 8/8
Survisors/Total (ICR mice; Intravenous, 100 mg/kg single dose): 8/8
Survisors/Total (ICR mice; Oral, 1 mg/kg single dose): 8/8
Survisors/Total (ICR mice; Oral, 3 mg/kg single dose): 8/8
Survisors/Total (ICR mice; Oral, 10 mg/kg single dose): 8/8
Survisors/Total (ICR mice; Oral, 30 mg/kg single dose): 8/8
Survisors/Total (ICR mice; Oral, 100 mg/kg single dose): 8/8
Acute toxicity in mice (conclusion) (ICR mice; mouse, in vivo): does not exhibit acute toxicity
Survival of mice (ICR mice; mouse, in vivo): survived
Weight loss and pathological symptoms such as diarrhea (ICR mice; mouse, in vivo): not observed
Deamination by adenosine deaminase [5]: not at all deaminated

SMILES: N#C[C@]1(CO)O[C@@H](n2cnc3c(N)nc(F)nc32)C[C@@H]1O [Compound 8, 4′-C-cyano-2′-deoxy-2-fluoroadenosine]
EC50 [1]: 4.8 µM
EC50 [3]: 0.95 µM
EC50 (HIV-1 wild strain (WT)): 120 nM

SMILES: C#C[C@]1(CO)O[C@@H](n2cnc3c(N)nc(Cl)nc32)C[C@@H]1O [Compound 9, 2-chloro-2′-deoxy-4′-C-ethynyladenosine]
EC50 [1]: 0.01 µM
EC50 [3]: 0.0084 µM
EC50 (HIV-1 wild strain (WT)): 1.9 nM

SMILES: C#C[C@]1(CO[PH](=O)O)O[C@@H](n2cnc3c(N)nc(F)nc32)C[C@H]1O [Compound 10, 2′-deoxy-4′-C-ethynyl-2-fluoroadenosine 5′-H-phosphonate]
EC50 [1]: 0.062 µM
EC50 [3]: 0.003 µM
EC50 (HIV-1 wild strain (WT)): 3.4 nM

SMILES: C#C[C@@]1(CO)C=C[C@H](n2cnc3c(N)nc(F)nc32)O1 [Compound 13, 2′,3′-didehydro-2′,3′-dideoxy-4′-C-ethynyl-2-fluoroadenosine]
EC50 [1]: 1.8 µM
EC50 [3]: 0.15 µM
EC50 (HIV-1 wild strain (WT)): 800 nM

SMILES: C#C[C@]1(CO)O[C@@H](n2cnc3c(N)ncnc32)C[C@@H]1O [EdAdo, 2′-deoxy-4′-C-ethynyladenosine, reference compound]
EC50 [1]: 0.047 µM
EC50 (HIV-1 (IIIb strain); [6]): 9.8 nM
Selectivity Index (CC50/EC50) (HIV-1 (IIIb strain)): 1,630
CC50 at 5 days [2]: 16000 nM
EC50 [3]: 0.0062 µM
EC50 (HIV-1 wild strain (WT)): 8 nM
Deamination by adenosine deaminase [5]: deaminated

SMILES: C#C[C@]1(CO)O[C@@H](n2cnc3c(N)nc(N)nc32)C[C@@H]1O [EdDAP, 9-(4-C-ethynyl-2-deoxy-ribopentofuranosyl)-2,6-diaminopurine]
EC50 (HIV-1 (IIIb strain)): 0.34 nM
CC50 (non-infected MT-4 cells): 900 nM

Fraction degraded under acidic conditions ([4]; in about five minutes, FIG. 3): About 98%
SMILES: Nc1ncnc2c1ncn2[C@H]1CC[C@@H](CO)O1 [ddAdo, 2′,3′-dideoxyadenosine, reference compound]
